# In patent publication US20250101032A1, “EXATECAN DERIVATIVES AND ANTIBODY-DRUG CONJUGATES THEREOF” (priority 2021, published 2025):
# Like-named read-outs stand apart in the source and are kept apart here.
# How the values were obtained:
# physchem = settings: 25 °C, pH 7.4, aqueous buffer, kinetic from dmso stock
# Method: In-vitro kinetic solubilities of the compounds in PBS pH 7.4 buffer at 25° C. were determined by diluting compounds from 100% dimethyl sulfoxide (DMSO) into PBS buffer and measuring absorbance at 490, 590 and 650 nm. Stock concentrations in 100% DMSO were provided at 1-6 mM in 100% DMSO. Kinetic solubilities were determined by diluting test compounds from 100% DMSO into PBS pH 7.4 buffer, as duplicate, 10 point 2-fold serial dilution starting at 100× dilution of stock DMS solution into PBS buffer in a clear, flat bottom polystyrene assay plates. Total assay volume was 200 microliters. Solutions were mixed by plate shaking, incubated for 30 m at 25° C., and absorbance was read at 490, 590 and 650 nm. […] in PBS buffer was used as a blank. For each test compound, average optical density (GD) at each concentration was determined by averaging the blank corrected sum of absorption at 490 nm, 590 nm and 650 nm, over duplicate measurements. Turbidity threshold optical density value was set as a sum of mean plus two standard deviations of the mean of absorbances at 490, 590 and 650 nm for 1% (v/v) DMSO in PBS pH 7.4 buffer. Highest soluble concentration (micromolar) corresponded to the highest concentration at which average optical density was below optical density value set for turbidity threshold (Table 4). Amiodarone and propranolol were used as low and high solubility controls respectively.
# SKBR3 = experiment: In vitro cytotoxicity assay (CellTiter-Glo), SKBR3; type: cell-based, Human; settings: read-out: Cytotoxicity IC50
# Method: (§1) Human tumor cell lines, SK-BR-3, NCI-H292, HT-29, MCF-7, NCI-N87, and FaDu were obtained from ATCC. NCI-H292, HT-29, MCF-7, and NCI-N87 cells were cultured in RPMI-1640 media (Gibco, Life Technologies) supplemented with 10% v/v heat inactivated FBS (Corning), FaDu cells were maintained in DMEM media (Gibco, Life Technologies) supplemented with 10% v/v heat inactivated FBS (Corning). SK-BR-3 cells were maintained in McCoys 5A medium (Gibco, Life Technologies) supplemented with 10% […] heat inactivated FBS (Corning) at 37° C. in a humidified incubator containing 5% CO2.
# (§2) Lyophilized compounds were dissolved in 100% dry DMSO, aliquots frozen and stored at −80° C. Concentration and purity of compound stock solutions in DMSO were determined by RP-HPLC Agilent 1100 platform with 1200 DAD and SofTA ELSD detectors, and the Agilent 6150 MS system (UV/VIS, ELSD purity and MS compound identity confirmation). Shimadzu 3.0 mm×30 mm XR ODS 2.2 μm column was run at 50° C., 1.5 mL/min. Solvent A: 0.1% Formic acid in water, Solvent B: 0.08% Formic acid in methanol-Gradient: 5%-100% B in 3.0 min, 100% solvent B for 0.3 min. Concentration of compounds in 100% DMSO determined by ELS ranged from 1-6 mM.
# (§3) Cells were plated in 96-well white flat-bottomed plates (Corning) at 2.0×10^3 cells per well in 100 μL culture medium. After incubation for 24 hours, test compounds were added at a range of concentrations as ten point serial dilution as duplicates or triplicates. Following further incubation for 6 days 37° C., 5% CO2, cell viability was assessed with the use of a CellTiter-Glo Luminescent Cell Viability Assay (Promega). Luminescence was measured using the GloMax instrument (Promega). […] For a subset of payloads, each treatment was independently repeated two to eight times, and IC50 values were averaged. […] Standard deviation (stdev) is shown as (N/A) for treatment performed once.
# HT29 = experiment: In vitro cytotoxicity assay (CellTiter-Glo), HT29; type: cell-based, Human; settings: read-out: Cytotoxicity IC50
# Method: as §1, §2, §3
# NCI-H292 = experiment: In vitro cytotoxicity assay (CellTiter-Glo), NCI-H292; type: cell-based, Human; settings: read-out: Cytotoxicity IC50
# Method: as §1, §2, §3
# MCF7 = experiment: In vitro cytotoxicity assay (CellTiter-Glo), MCF7; type: cell-based, Human; settings: read-out: Cytotoxicity IC50
# Method: as §1, §2, §3
# NCI-N87 = experiment: In vitro cytotoxicity assay (CellTiter-Glo), NCI-N87; type: cell-based, Human; settings: read-out: Cytotoxicity IC50
# Method: as §1, §2, §3
# FaDu = experiment: In vitro cytotoxicity assay (CellTiter-Glo), FaDu; type: cell-based, Human; settings: read-out: Cytotoxicity IC50
# Method: as §1, §2, §3
# SKOV3 = experiment: In vitro cytotoxicity assay (CellTiter-Glo), SKOV3; type: cell-based; settings: read-out: Cytotoxicity IC50
# Method: (§4) Lyophilized compounds were dissolved in 100% dry DMSO, aliquots frozen and stored at −80° C. […] Shimadzu 3.0 mm×30 mm XR ODS 2.2 μm column was run at 50° C., 1.5 mL/min. Solvent A: 0.1% Formic acid in water, Solvent B: 0.08% Formic acid in methanol-Gradient: 5%-100% B in 3.0 min, 100% solvent B for 0.3 min.
# as §3
# BXPC3 = experiment: In vitro cytotoxicity assay (CellTiter-Glo), BXPC3; type: cell-based; settings: read-out: Cytotoxicity IC50
# Method: as §4, §3
Molecule,solubility at 30 min (physchem) [µM],"IC50 (SKBR3; Homo sapiens, SK-BR-3, 144 h) [nM]","IC50 (HT29; Homo sapiens, HT-29, 144 h) [nM]","IC50 (NCI-H292; Homo sapiens, NCI-H292, 144 h) [nM]","IC50 (MCF7; Homo sapiens, MCF7, 144 h) [nM]","IC50 (NCI-N87; Homo sapiens, NCI-N87, 144 h) [nM]","IC50 (FaDu; Homo sapiens, FaDu, 144 h) [nM]","IC50 (SKOV3; Homo sapiens, SK-OV-3, 144 h) [nM]","IC50 (BXPC3; Homo sapiens, BXPC-3, 144 h) [nM]","IC50 (SKBR3; SKBR3 cells, 6 days incubation, mean of IC50 values) [nM]","IC50 (HT29; HT29 cells, 6 days incubation, mean of IC50 values) [nM]","IC50 (NCI-H292; NCI-H292 cells, 6 days incubation, mean of IC50 values) [nM]","IC50 (MCF7; MCF7 cells, 6 days incubation, mean of IC50 values) [nM]","IC50 (NCI-N87; NCI-N87 cells, 6 days incubation, mean of IC50 values) [nM]","IC50 (FaDu; FaDu cells, 6 days incubation, mean of IC50 values) [nM]","IC50 (SKOV3; SKOV3 cells, 6 days incubation, mean of IC50 values) [nM]","IC50 (BXPC3; BXPC3 cells, 6 days incubation, mean of IC50 values) [nM]"
CC[C@@]1(O)C(=O)OCc2c1cc1n(c2=O)Cc2c-1nc1cc(F)c(C)c3c1c2[C@@H](Nc1c(NCCO)c(=O)c1=O)CC3 [Compound 2],15,75.4,180,96,41.4,111,23.4,124,29.8,,,,,,,,
CC[C@@]1(O)C(=O)OCc2c1cc1n(c2=O)Cc2c-1nc1cc(F)c(C)c3c1c2[C@@H](NC(=O)OCCO)CC3 [Compound 22],23,1.2,5.7,2.7,2.3,2.6,0.7,1.9,0.7,,,,,,,,
CC[C@@]1(O)C(=O)OCc2c1cc1n(c2=O)Cc2c-1nc1cc(F)c(C)c3c1c2[C@@H](N(CCO)C(C)=O)CC3 [Compound 136],23,23.7,36.8,16.3,18.4,40.2,5.2,98.4,24.9,,,,,,,,
"CC[C@@]1(O)C(=O)OCc2c1cc1n(c2=O)Cc2c-1nc1cc(F)c(C)c3c1c2[C@@H](NC(=O)[C@@H]1C[C@H]1CO)CC3 (single isomer, unassigned) [Compound 111-A]",23,6,34.4,18,16.7,13.1,1.9,24.5,5.6,,,,,,,,
CC[C@@]1(O)C(=O)OCc2c1cc1n(c2=O)Cc2c-1nc1cc(F)c(C)c3c1c2[C@@H](NC(=O)CCC(=O)NCCO)CC3 [Compound 16],22,166,1140,290,140,736,72,341,149,,,,,,,,
CC[C@@]1(O)C(=O)OCc2c1cc1n(c2=O)Cc2c-1nc1cc(F)c(C)c3c1c2[C@@H](NC(=O)NCC(O)CO)CC3 (stereo partly shown) [Compound 118],30,23.9,291,88.4,45.9,96.6,17.5,96.7,52.7,,,,,,,,
CC[C@@]1(O)C(=O)OCc2c1cc1n(c2=O)Cc2c-1nc1cc(F)c(C)c3c1c2[C@@H](Nc1c(O)c(=O)c1=O)CC3 [Compound 129],22,169,282,208,79.3,300,92.9,265,134,,,,,,,,
CC[C@@]1(O)C(=O)OCc2c1cc1n(c2=O)Cc2c-1nc1cc(F)c(C)c3c1c2[C@@H](NC(=O)c1ccc(CO)o1)CC3 [Compound 103],7,6.9,14.4,6,4.6,17.2,1.5,26.5,6.4,,,,,,,,
CC[C@@]1(O)C(=O)OCc2c1cc1n(c2=O)Cc2c-1nc1cc(F)c(C)c3c1c2[C@@H](NCc1cnnn1CCO)CC3 [Compound 109],17,7.3,56.8,26.1,12.8,29.3,8.3,32.4,10.8,,,,,,,,
"CC[C@@]1(O)C(=O)OCc2c1cc1n(c2=O)Cc2c-1nc1cc(F)c(C)c3c1c2[C@@H](N)CC3 [Exatecan, exatecan]",24,0.5,1,1.3,0.4,1.2,0.6,0.7,0.3,,,,,,,,
CC[C@@]1(O)C(=O)OCc2c1cc1n(c2=O)Cc2c-1nc1cc(F)c(C)c3c1c2[C@@H](NC(=O)c1cn(CCO)nn1)CC3 [Compound 52],25,2.5,23.3,6.8,5.9,10.1,4.2,12.9,3.4,,,,,,,,
CC[C@@]1(O)C(=O)OCc2c1cc1n(c2=O)Cc2c-1nc1cc(F)c(C)c3c1c2[C@@H](NCCO)CC3 [Compound 105],25,0.9,2.1,1.7,1.4,1.6,1.3,1.8,0.6,,,,,,,,
CC[C@@]1(O)C(=O)OCc2c1cc1n(c2=O)Cc2c-1nc1cc(F)c(C)c3c1c2[C@@H](NCc1cn(CCO)nn1)CC3 [Compound 108],10,2.9,13.2,8.1,4.4,8.3,2.4,6.6,2.3,,,,,,,,
CC[C@@]1(O)C(=O)OCc2c1cc1n(c2=O)Cc2c-1nc1cc(F)c(C)c3c1c2[C@@H](NC(=O)Cc1cn(CCO)nn1)CC3 [Compound 66],21,7.3,78.1,24.7,23.9,30,7.9,43.3,9.8,,,,,,,,
CC[C@@]1(O)C(=O)OCc2c1cc1n(c2=S)Cc2c-1nc1cc(F)c(C)c3c1c2[C@@H](NC(=S)CO)CC3 [Compound 148],3,0.3,0.9,1.1,0.1,0.2,,0.2,0.1,,,,,,,,
SN-38,,,,,,,,,,1.8,5.1,2.5,4.3,4.2,2.2,3.2,0.5
